Measurements from ChEMBL document CHEMBL5518224, “Rational Design of PARP1/c-Met Dual Inhibitors for Overcoming PARP1 Inhibitor Resistance Induced by c-Met Overexpression” (J Med Chem, 2024).
Active and inactive are the calls of the source. No cut-off for these calls is given here.

Legend:
MDA-MB-231 [1] = experiment: Induction of apoptosis in human MDA-MB-231 cells assessed as dead cells at 1 uM incubated for 4 days in presence of crizotinib at 0.5 uM by Annexin V-FITC/PI staining based flow cytometry analysis (reference value: 0.72%); type: functional; settings: time 4 day
[2] = test system: Olaparib-resistant HCT116; experiment: Antitumor activity against human Olaparib-resistant HCT116 cells xenografted in female Balb/c nude mouse assessed as reduction in tumor weight at 50 mg/kg/day, ip qd administered for 21 days; type: functional, organism-based; settings: time 21.0 day
[3] = test system: Olaparib-resistant HCT116; experiment: Antiproliferative activity against human Olaparib-resistant HCT116 cells harboring BRCA2 mutant assessed as inhibition of cell growth incubated for 7 days by MTT assay; type: functional, cell-based; settings: Olaparib-resistant HCT116, 168 h
MDA-MB-231 [4] = experiment: Antiproliferative activity against human MDA-MB-231 cells harboring wild type BRCA and c-Met amplification assessed as inhibition of cell growth incubated for 7 days by MTT assay; type: functional, cell-based; settings: MDA-MB-231, 168 h
[5] = test system: Olaparib-resistant HCT116; experiment: Antitumor activity against human Olaparib-resistant HCT116 cells xenografted in female Balb/c nude mouse assessed as tumor growth inhibition at 50 mg/kg/day, ip qd administered for 21 days in presence of crizotinib at 25 mg/kg/day, po qd relative to control; type: functional; settings: time 21 day
MDA-MB-231 [6] = experiment: Antitumor activity against human MDA-MB-231 cells xenografted in female Balb/c nude mouse assessed as tumor growth inhibition at 50 mg/kg/day, ip qd administered for 28 days relative to control; type: functional; settings: time 28 day
[7] = Antiproliferative activity against human Olaparib-resistant HCC1937 cells harboring BRCA1 mutant and PARP1 overexpression assessed as inhibition of cell growth incubated for 7 days by MTT assay; type: functional, cell-based; settings: Olaparib-resistant HCC1937, 168 h
MDA-MB-231 [8] = experiment: Induction of apoptosis in human MDA-MB-231 cells assessed as late apoptotic cells at 1 uM incubated for 4 days by Annexin V-FITC/PI staining based flow cytometry analysis (reference value: 0.81%); type: functional; settings: time 4 day
MDA-MB-231 [9] = experiment: Antitumor activity against human MDA-MB-231 cells xenografted in female Balb/c nude mouse assessed as reduction in tumor weight at 50 mg/kg/day, ip qd administered for 28 days; type: functional, organism-based; settings: time 28.0 day
MDA-MB-231 [10] = experiment: Induction of apoptosis in human MDA-MB-231 cells assessed as early apoptotic cells at 1 uM incubated for 4 days in presence of crizotinib at 0.5 uM by Annexin V-FITC/PI staining based flow cytometry analysis (reference value: 3.88%); type: functional; settings: time 4 day
[11] = test system: Olaparib-resistant HCT116; experiment: Antitumor activity against human Olaparib-resistant HCT116 cells xenografted in female Balb/c nude mouse assessed as tumor growth inhibition at 50 mg/kg/day, ip qd administered for 21 days relative to control; type: functional; settings: time 21 day
MDA-MB-231 [12] = experiment: Induction of apoptosis in human MDA-MB-231 cells assessed as dead cells at 1 uM incubated for 4 days by Annexin V-FITC/PI staining based flow cytometry analysis (reference value: 0.72%); type: functional; settings: time 4 day
MDA-MB-231 [13] = experiment: Induction of apoptosis in human MDA-MB-231 cells assessed as late apoptotic cells at 1 uM incubated for 4 days in presence of crizotinib at 0.5 uM by Annexin V-FITC/PI staining based flow cytometry analysis (reference value: 0.81%); type: functional; settings: time 4 day
MDA-MB-468 [14] = experiment: Antiproliferative activity against human MDA-MB-468 cells harboring wild type BRCA1/2, HR-proficient and non-c-Met amplification assessed as inhibition of cell growth incubated for 7 days by MTT assay; type: functional, cell-based; settings: MDA-MB-468, 168 h
MDA-MB-231 [15] = experiment: Induction of apoptosis in human MDA-MB-231 cells assessed as early apoptotic cells at 1 uM incubated for 4 days by Annexin V-FITC/PI staining based flow cytometry analysis (reference value: 3.88%); type: functional; settings: time 4 day
[16] = test system: Olaparib-resistant HCT116; experiment: Antitumor activity against human Olaparib-resistant HCT116 cells xenografted in female Balb/c nude mouse assessed as reduction in tumor weight at 50 mg/kg/day, ip qd administered for 21 days in presence of crizotinib at 25 mg/kg/day, po qd; type: functional, organism-based; settings: time 21.0 day
MDA-MB-231 [17] = experiment: Antitumor activity against human MDA-MB-231 cells xenografted in female Balb/c nude mouse assessed as reduction in tumor weight at 50 mg/kg/day, ip qd administered for 28 days in presence of crizotinib at 25 mg/kg, po qd; type: functional, organism-based; settings: time 28.0 day
[18] = test system: Olaparib-resistant HCT116; experiment: Antitumor activity against human Olaparib-resistant HCT116 cells xenografted in female Balb/c nude mouse assessed as reduction in tumor weight at 25 mg/kg/day, po qd administered for 21 days in presence of olaparib at 50 mg/kg/day, ip qd; type: functional, organism-based; settings: time 21.0 day
MDA-MB-231 [19] = experiment: Induction of apoptosis in human MDA-MB-231 cells assessed as live cells at 1 uM incubated for 4 days in presence of crizotinib at 0.5 uM by Annexin V-FITC/PI staining based flow cytometry analysis (reference value: 94.6%); type: functional; settings: time 4 day
MDA-MB-231 [20] = experiment: Induction of apoptosis in human MDA-MB-231 cells assessed as live cells at 1 uM incubated for 4 days by Annexin V-FITC/PI staining based flow cytometry analysis (reference value: 94.6%); type: functional; settings: time 4 day
[21] = test system: Olaparib-resistant HCT116; experiment: Potency index, ratio of olaparib IC50 to test compound IC50 for antiproliferative activity against human Olaparib-resistant HCT116 cells harboring BRCA2 mutant assessed as inhibition of cell growth incubated for 7 days by MTT assay; type: functional; settings: time 7 day
MDA-MB-231 [22] = experiment: Potency index, ratio of olaparib IC50 to test compound IC50 for antiproliferative activity against human MDA-MB-231 cells harboring wild type BRCA and c-Met amplification assessed as inhibition of cell growth incubated for 7 days by MTT assay; type: functional; settings: time 7 day
[23] = Potency index, ratio of olaparib IC50 to test compound IC50 for antiproliferative activity against human Olaparib-resistant HCC1937 cells harboring BRCA1 mutant and PARP1 overexpression assessed as inhibition of cell growth incubated for 7 days by MTT assay; type: functional; settings: time 7 day
MDA-MB-231 [24] = experiment: Induction of apoptosis in human MDA-MB-231 cells assessed as dead cells at 0.5 uM incubated for 4 days by Annexin V-FITC/PI staining based flow cytometry analysis (reference value: 0.72%); type: functional; settings: time 4 day
MDA-MB-231 [25] = experiment: Induction of apoptosis in human MDA-MB-231 cells assessed as early apoptotic cells at 0.5 uM incubated for 4 days by Annexin V-FITC/PI staining based flow cytometry analysis (reference value: 3.88%); type: functional; settings: time 4 day
[26] = target: Poly [ADP-ribose] polymerase 1 (Homo sapiens, UniProt P09874); experiment: Inhibition of PARP1 (unknown origin) using histone as substrate incubated for 45 mins by absorbance based analysis
MDA-MB-468 [27] = experiment: Potency index, ratio of olaparib IC50 to test compound IC50 for antiproliferative activity against human MDA-MB-468 cells harboring wild type BRCA1/2, HR-proficient and non-c-Met amplification assessed as inhibition of cell growth incubated for 7 days by MTT assay; type: functional; settings: time 7 day
[28] = Cytotoxicity against NRK cells assessed as inhibition of cell growth incubated for 72 hrs by MTT assay; type: toxicity, cell-based; settings: rat
MDA-MB-231 [29] = experiment: Induction of apoptosis in human MDA-MB-231 cells assessed as live cells at 0.5 uM incubated for 4 days by Annexin V-FITC/PI staining based flow cytometry analysis (reference value: 94.6%); type: functional; settings: time 4 day
MDA-MB-468 [30] = experiment: Potency index, ratio of crizotinib IC50 to test compound IC50 for antiproliferative activity against human MDA-MB-468 cells harboring wild type BRCA1/2, HR-proficient and non-c-Met amplification assessed as inhibition of cell growth incubated for 7 days by MTT assay; type: functional; settings: time 7 day
MDA-MB-231 [31] = experiment: Induction of apoptosis in human MDA-MB-231 cells assessed as late apoptotic cells at 0.5 uM incubated for 4 days by Annexin V-FITC/PI staining based flow cytometry analysis (reference value: 0.81%); type: functional; settings: time 4 day
[32] = target: Hepatocyte growth factor receptor (Homo sapiens, UniProt P08581); experiment: Inhibition of c-Met (unknown origin) by HTRF method
Sequence of Hepatocyte growth factor receptor (P08581 whole entry): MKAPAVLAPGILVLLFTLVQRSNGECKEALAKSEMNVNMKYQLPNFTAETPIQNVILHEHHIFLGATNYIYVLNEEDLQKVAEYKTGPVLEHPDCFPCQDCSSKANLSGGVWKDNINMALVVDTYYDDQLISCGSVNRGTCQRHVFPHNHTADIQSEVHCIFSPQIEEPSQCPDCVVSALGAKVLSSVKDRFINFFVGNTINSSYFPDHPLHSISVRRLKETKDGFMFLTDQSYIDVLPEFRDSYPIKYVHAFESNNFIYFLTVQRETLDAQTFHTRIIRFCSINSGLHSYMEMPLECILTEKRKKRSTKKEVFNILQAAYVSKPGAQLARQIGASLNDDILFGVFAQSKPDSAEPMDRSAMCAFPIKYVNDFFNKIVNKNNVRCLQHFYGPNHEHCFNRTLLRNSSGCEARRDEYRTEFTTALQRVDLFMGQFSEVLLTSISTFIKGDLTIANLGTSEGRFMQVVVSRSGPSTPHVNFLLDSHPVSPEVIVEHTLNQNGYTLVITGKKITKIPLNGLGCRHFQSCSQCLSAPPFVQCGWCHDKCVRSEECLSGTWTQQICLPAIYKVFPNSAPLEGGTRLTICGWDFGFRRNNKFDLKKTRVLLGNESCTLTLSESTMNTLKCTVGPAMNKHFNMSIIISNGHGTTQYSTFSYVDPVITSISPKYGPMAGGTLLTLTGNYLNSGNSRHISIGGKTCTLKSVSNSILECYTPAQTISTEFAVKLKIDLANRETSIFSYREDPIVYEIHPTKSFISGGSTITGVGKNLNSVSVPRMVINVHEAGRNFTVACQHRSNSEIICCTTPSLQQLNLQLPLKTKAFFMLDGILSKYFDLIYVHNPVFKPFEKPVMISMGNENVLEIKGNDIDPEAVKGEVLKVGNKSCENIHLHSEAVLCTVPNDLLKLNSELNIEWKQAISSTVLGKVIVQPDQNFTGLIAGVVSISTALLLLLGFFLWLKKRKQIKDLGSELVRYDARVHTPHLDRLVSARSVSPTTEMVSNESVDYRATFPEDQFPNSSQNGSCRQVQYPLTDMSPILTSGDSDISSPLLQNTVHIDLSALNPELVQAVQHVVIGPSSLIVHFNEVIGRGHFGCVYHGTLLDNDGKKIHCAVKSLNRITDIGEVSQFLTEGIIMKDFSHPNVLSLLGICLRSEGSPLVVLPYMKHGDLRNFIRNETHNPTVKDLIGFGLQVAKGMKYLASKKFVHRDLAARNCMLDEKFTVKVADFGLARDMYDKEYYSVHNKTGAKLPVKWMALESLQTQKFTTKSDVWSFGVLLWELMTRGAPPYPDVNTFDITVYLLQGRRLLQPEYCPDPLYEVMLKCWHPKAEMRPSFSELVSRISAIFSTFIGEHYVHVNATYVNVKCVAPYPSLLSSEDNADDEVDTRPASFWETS

Sequence of Poly [ADP-ribose] polymerase 1 (P09874 whole entry): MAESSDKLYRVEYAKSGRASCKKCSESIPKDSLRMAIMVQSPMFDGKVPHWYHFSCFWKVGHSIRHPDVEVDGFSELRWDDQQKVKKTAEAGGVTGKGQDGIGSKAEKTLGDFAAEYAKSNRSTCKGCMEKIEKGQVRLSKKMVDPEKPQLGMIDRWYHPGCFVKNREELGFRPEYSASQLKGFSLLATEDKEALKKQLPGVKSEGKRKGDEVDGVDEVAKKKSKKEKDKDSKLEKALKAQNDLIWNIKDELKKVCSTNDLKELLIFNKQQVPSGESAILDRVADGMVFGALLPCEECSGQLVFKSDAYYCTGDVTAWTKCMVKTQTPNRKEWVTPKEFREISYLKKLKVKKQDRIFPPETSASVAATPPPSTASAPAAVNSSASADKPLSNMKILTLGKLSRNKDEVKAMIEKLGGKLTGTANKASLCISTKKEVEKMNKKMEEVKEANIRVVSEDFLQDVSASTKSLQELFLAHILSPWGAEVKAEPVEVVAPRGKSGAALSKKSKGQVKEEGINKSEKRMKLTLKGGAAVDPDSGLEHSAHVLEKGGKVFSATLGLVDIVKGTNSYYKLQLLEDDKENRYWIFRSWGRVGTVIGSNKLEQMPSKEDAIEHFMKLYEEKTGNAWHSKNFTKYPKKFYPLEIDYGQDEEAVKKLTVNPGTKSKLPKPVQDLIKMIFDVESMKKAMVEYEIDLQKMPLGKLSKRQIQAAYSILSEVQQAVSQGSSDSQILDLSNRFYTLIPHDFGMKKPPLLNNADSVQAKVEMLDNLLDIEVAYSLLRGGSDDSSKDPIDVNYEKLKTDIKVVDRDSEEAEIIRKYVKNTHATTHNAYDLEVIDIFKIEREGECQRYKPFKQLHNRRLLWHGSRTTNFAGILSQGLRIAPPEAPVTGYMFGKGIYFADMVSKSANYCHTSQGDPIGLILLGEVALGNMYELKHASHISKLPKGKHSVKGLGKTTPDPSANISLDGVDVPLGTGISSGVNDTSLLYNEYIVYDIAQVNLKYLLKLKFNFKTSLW

For `O=C(c1cc(Cc2n[nH]c(=O)c3ccccc23)ccc1F)N1CCN(C(=O)C2CC2)CC1` [OLAPARIB], which Activity (MDA-MB-231 [1]) is on record?
The Activity was 9.45%.

What about the Activity [2] of the same molecule?
Its Activity is “Active”.

What about the IC50 [3] of the same molecule?
The IC50 was 50.8 µM.

What about the IC50 (MDA-MB-231 [4]) of the same molecule?
Its IC50 is 30.7 µM.

What about the TGI [5] of the same molecule?
The TGI was 48%.

And the TGI (MDA-MB-231 [6])?
Its TGI is 27%.

And the IC50 [7]?
The IC50 was 18.9 µM.

What about the Activity (MDA-MB-231 [8]) of the same molecule?
Its Activity is 2.48%.

What about the Activity (MDA-MB-231 [9]) of the same molecule?
Its Activity is “Active”.

What about the Activity (MDA-MB-231 [10]) of the same molecule?
Its Activity is 7.12%.

And the TGI [11]?
The TGI was 26%.

And the Activity (MDA-MB-231 [12])?
The Activity was 4.86%.

And the Activity (MDA-MB-231 [13])?
Its Activity is 6.57%.

What about the IC50 (MDA-MB-468 [14]) of the same molecule?
Its IC50 is 9.23 µM.

And the Activity (MDA-MB-231 [15])?
Its Activity is 3.77%.

And the Activity [16]?
Its Activity is “Active”.

And the Activity (MDA-MB-231 [17])?
The Activity was “Active”.

What about the Activity [18] of the same molecule?
Its Activity is “Active”.

What about the Activity (MDA-MB-231 [19]) of the same molecule?
The Activity was 76.9%.

What about the Activity (MDA-MB-231 [20]) of the same molecule?
The Activity was 88.9%.

With `O=C(c1cc(Cc2n[nH]c(=O)c3ccccc23)ccc1F)N1CCN(c2ccc3c(OCCn4nc(-c5cccnc5)ccc4=O)ccnc3c2)CC1` as the molecule, how does the “Ratio IC50” value [21] read?
Its value is 10.

What about the IC50 [3] of the same molecule?
The IC50 was 5.33 µM.

What about the IC50 (MDA-MB-231 [4]) of the same molecule?
Its IC50 is 0.045 µM.

What about the “Ratio IC50” value (MDA-MB-231 [22]) of the same molecule?
The value was 680.

And the IC50 [7]?
The IC50 was 4.57 µM.

What about the “Ratio IC50” value [23] of the same molecule?
Its value is 4.

And the Activity (MDA-MB-231 [8])?
Its Activity is 10.6%.

What about the Activity (MDA-MB-231 [24]) of the same molecule?
Its Activity is 5%.

And the Activity (MDA-MB-231 [25])?
The Activity was 8.46%.

What about the IC50 [26] of the same molecule?
Its IC50 is 0.0033 µM.

And the “Ratio IC50” value (MDA-MB-468 [27])?
Its value is 54.

What about the IC50 at 72 h [28] of the same molecule?
Its IC50 at 72 h is 8.73 µM.

What about the Activity (MDA-MB-231 [29]) of the same molecule?
Its Activity is 78.5%.

And the Activity (MDA-MB-231 [12])?
The Activity was 6.37%.

And the “Ratio IC50” value (MDA-MB-468 [30])?
The value was 26.

And the IC50 (MDA-MB-468 [14])?
The IC50 was 0.17 µM.

What about the Activity (MDA-MB-231 [15]) of the same molecule?
Its Activity is 15.8%.

What about the Activity (MDA-MB-231 [31]) of the same molecule?
The Activity was 8.09%.

What about the IC50 [32] of the same molecule?
The IC50 was 0.0322 µM.

And the Activity (MDA-MB-231 [20])?
The Activity was 67.2%.
